# Measurements from patent US20050282840A1, “Methods of modulating neurotrophin-mediated activity” (PainCeptor Pharma Corporation, priority 2004, published 2005).
# Like-named read-outs stand apart in the source and are kept apart here.
# Tests used:
# p75 [1] = experiment: Neurotrophin-receptor crosslinking assay, 125I-BDNF (Example 3); format: binding; conditions: for 125I-BDNF X-linking Sample (% binding): crosslinked sample counted on gamma counter; for 125I-BDNF X-linking p75 band (% binding): p75 band counted on gamma counter
# Experimental: (§1) PC12 cells or TrkB-expressing PC12^nnr5 cells were recovered using Gey's solution, pelleted by centrifugation, and suspended in HKR (HEPES-Krebs Ringer Solution; [10 mM HEPES, 125 mM NaCl, 4.8 mM KCl, 1.3 mM CaCl2.2H2O, 1.2 mM MgSO4, 1.2 mM KH2PO4, 1 mg/mL BSA, 1 mg/mL glucose, pH 7.35]). In a total volume of 1 mL, 1×10^6 cells were incubated, rotating, with 0.1 nM ^125I-BDNF or ^125I-NGF and additions (Compound A or Compound B at the indicated final concentrations) for 2 h at 4° C. At the conclusion of the binding reaction, a 20 μL volume of BS^3 was added to a final concentration of 0.4 mM and incubated, rocking, for an additional 30 min at room temperature. Cells were washed twice in TBS. For analysis of ^125I-NGF crosslinking to TrkA, ^125I-NGF crosslinking to p75^NTR, and ^125I-BDNF crosslinking to p75^NTR, samples were solubilized directly in SDS sample buffer and heated for 10 min at 95° C. For analysis of ^125I-BDNF crosslinking to TrkB, samples were immunoprecipitated with a pan-Trk antibody. All samples were electrophoresed on a 6% SDS-polyacrylamide gel, dried, and autoradiographed. Dried gels were registered to the autoradiograph and each labeled protein band was quantified by direct gamma counting. Non-linear regression analysis was performed by Prism 3.0 to generate concentration-effect curves and determine IC50 values.
# (§2) The neurotrophin-receptor crosslinking assay described in Example 1 was used to determine binding of compounds 65, 3, 43 and 97 to ^125I-NGF and ^125I-BDNF.
# (§3) ^1The p75 band was excised from the gel and cpm were determined on a gamma counter. Values were calculated as follows: [formula]
# (§4) ^2An aliquot of the total crosslinked sample in SDS-sample buffer was counted on a gamma counter. Values were calculated as follows: [formula]
# [2] = target: T1, p75^NTR receptors (PC12 cells) (Rattus norvegicus, UniProt P07174); experiment: Basic screening assay: binding of 125I-BDNF to PC12 cells; conditions: for 125I-BDNF Binding (% binding): Example 3 table; for activity at 50 µM: read-out: BDNF Activity % Maximal Binding
# T1 construct: endogenous in cells; host or cells: PC12 cells
# T1 sequence (P07174 30-425): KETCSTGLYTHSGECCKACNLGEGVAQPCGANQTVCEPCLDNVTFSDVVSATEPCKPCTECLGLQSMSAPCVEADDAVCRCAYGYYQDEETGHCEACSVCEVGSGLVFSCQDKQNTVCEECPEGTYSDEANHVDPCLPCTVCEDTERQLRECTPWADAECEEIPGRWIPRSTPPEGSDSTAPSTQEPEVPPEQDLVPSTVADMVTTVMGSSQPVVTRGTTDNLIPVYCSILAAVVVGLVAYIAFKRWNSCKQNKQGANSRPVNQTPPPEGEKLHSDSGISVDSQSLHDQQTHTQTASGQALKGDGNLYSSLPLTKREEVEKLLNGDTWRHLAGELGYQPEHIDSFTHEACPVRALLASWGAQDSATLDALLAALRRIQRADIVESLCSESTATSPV
# T1 sequence (P23560 129-247 partner): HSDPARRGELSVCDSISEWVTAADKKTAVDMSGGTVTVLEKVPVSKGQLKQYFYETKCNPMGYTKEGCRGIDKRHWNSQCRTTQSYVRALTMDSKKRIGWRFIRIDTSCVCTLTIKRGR
# How it was run: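 4×10^6 PC12 cells incubated 2 h at 4° C, rotating, with 0.5 nM ^125I-BDNF (final) and compound at 50 μM, in duplicate or more. Bound ligand separated through 10% glycerol by centrifugation and counted by gamma counter; specific binding is Bmax minus NSB; inhibitors followed up for EC50.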
# [3] = system: p75^NTR receptors (PC12 cells); experiment: Basic screening assay: binding of 125I-NGF to PC12 cells; conditions: for 125I-NGF Binding (% binding): Example 3 table; for NGF Activity % Maximal Binding: test compound 50 μM, 0.5 nM 125I-NGF, PC12 cells, 2 h at 4° C., specific binding as percent of control
# How it was run: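 Inhibition of 0.5 nM 125I-NGF binding to p75NTR on PC12 cells was measured with compounds at 50 μM during 2 h rotation at 4° C. Cell-bound radioactivity from glycerol-cushion centrifugation was gamma-counted, giving NSB-corrected binding as % of control specific binding.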
# p75 [4] = experiment: Neurotrophin-receptor crosslinking assay, 125I-NGF (Example 3); format: binding; conditions: for 125I-NGF X-linking Sample (% binding): crosslinked sample counted on gamma counter; for 125I-NGF X-linking p75 band (% binding): p75 band counted on gamma counter
# Experimental: as §1, §2, §3, §4
# [5] = Table 4, test compound 50 μM, 0.5 nM 125I-BDNF, PC12 cells, 2 h at 4° C., specific binding as percent of control
Structure (SMILES),"activity at 50 µM [2, 5]",NGF Activity % Maximal Binding ([3]; Table 4),other results
"Cc1cc(-c2ccc(C=C3C(=O)NC(=S)NC3=O)o2)c(C)c([N+](=O)[O-])c1 [Compound 3, 5-[5-(2,5-Dimethyl-3-nitrophenyl)furan-2-ylmethylene]-2-thioxo-dihydro-pyrimidine-4,6-dione]",,,125I-BDNF X-linking Sample (% binding) (p75 [1]): XXXXX (0 < XXXXX < 10); 125I-BDNF X-linking p75 band (% binding) (p75 [1]): XXXXX (0 < XXXXX < 10); 125I-BDNF Binding (% binding) [2]: XXXXX (0 < XXXXX < 10); activity at 50 µM [2]: 0 to 10%; 125I-NGF Binding (% binding) [3]: * (50 < *); NGF Activity % Maximal Binding ([3]; Table 1): * (50 < *); 125I-NGF X-linking Sample (% binding) (p75 [4]): * (50 < *); 125I-NGF X-linking p75 band (% binding) (p75 [4]): * (50 < *)
"O=C(O)c1cc(-c2ccc(/C=C3\NC(=O)N(c4cccc(Cl)c4)C3=O)o2)ccc1Cl [Compound 43, 2-Chloro-5-{5-[1-(3-chlorophenyl)-2,5-dioxo-imidazolidin-4-ylidenemethyl]furan-2-yl}benzoic acid]",,,"125I-BDNF X-linking Sample (% binding) (p75 [1]): XXX (20 < XXX < 30); 125I-BDNF X-linking p75 band (% binding) (p75 [1]): XXXXX (0 < XXXXX < 10); 125I-BDNF Binding (% binding) [2]: XXX (20 < XXX < 30); activity at 50 µM ([2]; Table 1, test compound 50 μM, 0.5 nM 125I-BDNF, PC12 cells, 2 h at 4° C., specific binding as percent of control): 30 to 40%; 125I-NGF Binding (% binding) [3]: * (50 < *); NGF Activity % Maximal Binding ([3]; Table 1): * (50 < *); 125I-NGF X-linking Sample (% binding) (p75 [4]): * (50 < *); 125I-NGF X-linking p75 band (% binding) (p75 [4]): * (50 < *)"
"O=C1NC(=Cc2ccc(-c3ccc(Cl)c([N+](=O)[O-])c3)o2)C(=O)N1c1ccccc1 [Compound 127, 5-[5-(4-Chloro-3-nitrophenyl)furan-2-ylmethylene]-3-phenyl-imidazolidine-2,4-dione]",> 50%,* (50 < *),
"COC(=O)c1ccc(-c2ccc(/C=C3/NC(=O)N(c4cccc(Cl)c4)C3=O)o2)cc1 [Compound 128, 4-{5-[1-(3-Chlorophenyl)-2,5-dioxo-imidazolidin-4-ylidenemethyl]furan-2-yl}benzoic acid methyl ester]",> 50%,* (50 < *),
"Cc1ccc(-c2ccc(/C=C3/NC(=O)N(Cc4ccccc4F)C3=O)o2)cc1[N+](=O)[O-] [Compound 129, 3-(2-Fluorobenzyl)-5-[5-(4-methyl-3-nitrophenyl)furan-2-ylmethylene]-imidazolidine-2,4-dione]",> 50%,* (50 < *),
"Cc1c(C(=O)O)cccc1-c1ccc(/C=C2/NC(=O)N(c3cccc(Cl)c3)C2=O)o1 [Compound 130, 3-{5-[1-(3-Chlorophenyl)-2,5-dioxo-imidazolidin-4-ylidenemethyl]furan-2-yl}-2-methylbenzoic acid]",> 50%,* (50 < *),
"Cc1cc([N+](=O)[O-])ccc1-c1ccc(/C=C2\NC(=O)N(Cc3ccccc3F)C2=O)o1 [Compound 131, 3-(2-Fluorobenzyl)-5-[5-(2-methyl-4-nitrophenyl)furan-2-ylmethylene]-imidazolidine-2,4-dione]",> 50%,* (50 < *),
"CCOC(=O)CN1C(=O)S/C(=C/c2ccc(-c3ccc([N+](=O)[O-])cc3Cl)o2)C1=O [Compound 132, {5-[5-(2-Chloro-4-nitrophenyl)furan-2-ylmethylene]-2,4-dioxo-thiazolidin-3-yl}-acetic acid ethyl ester]",> 50%,* (50 < *),
"COc1cc([N+](=O)[O-])ccc1-c1ccc(/C=C2/NC(=O)N(Cc3ccccc3F)C2=O)o1 [Compound 133, 3-(2-Fluorobenzyl)-5-[5-(2-methoxy-4-nitrophenyl)furan-2-ylmethylene]-imidazolidine-2,4-dione]",> 50%,* (50 < *),
"Cc1cccc(N2NC(=O)C(=Cc3ccc(-c4ccc(Cl)c(C(=O)O)c4)o3)C2=O)c1 [Compound 134, 2-Chloro-5-[5-(3,5-dioxo-1-m-tolyl-pyrazolidin-4-ylidenemethyl)furan-2-yl]benzoic acid]",> 50%,* (50 < *),
"COC(=O)c1ccc(-c2ccc(/C=C3/NC(=O)N(c4cccc(Cl)c4)C3=O)o2)c(C)c1 [Compound 135, 4-{5-[1-(3-Chlorophenyl)-2,5-dioxo-imidazolidin-4-ylidenemethyl]furan-2-yl}-3-methylbenzoic acid methyl ester]",> 50%,* (50 < *),
"O=C(O)c1ccc(-c2ccc(/C=C3/NC(=O)N(Cc4ccccc4F)C3=O)o2)cc1 [Compound 136, 4-{5-[1-(2-Fluorobenzyl)-2,5-dioxo-imidazolidin-4-ylidenemethyl]furan-2-yl}benzoic acid]",> 50%,* (50 < *),
"COc1cc([N+](=O)[O-])ccc1-c1ccc(/C=C2/NC(=O)N(c3cccc(Cl)c3)C2=O)o1 [Compound 137, 3-(3-Chlorophenyl)-5-[5-(2-methoxy-4-nitrophenyl)furan-2-ylmethylene]-imidazolidine-2,4-dione]",> 50%,* (50 < *),
"COc1cc([N+](=O)[O-])ccc1-c1ccc(C=C2C(=O)NN(c3cccc(C)c3)C2=O)o1 [Compound 138, 4-[5-(2-Methoxy-4-nitrophenyl)furan-2-ylmethylene]-1-m-tolyl-pyrazolidine-3,5-dione]",> 50%,* (50 < *),
"COC(=O)c1cccc(-c2ccc(/C=C3/NC(=O)N(Cc4ccccc4F)C3=O)o2)c1C [Compound 139, 3-{5-[1-(2-Fluorobenzyl)-2,5-dioxo-imidazolidin-4-ylidenemethyl]furan-2-yl}-2-methylbenzoic acid methyl ester]",> 50%,* (50 < *),
"Cc1cccc(N2NC(=O)C(=Cc3ccc(-c4cccc([N+](=O)[O-])c4)o3)C2=O)c1 [Compound 140, 4-[5-(3-Nitrophenyl)furan-2-ylmethylene]-1-m-tolyl-pyrazolidine-3,5-dione]",> 50%,* (50 < *),
"COC(=O)CN1C(=S)N(C)C(=O)/C1=C/c1ccc(-c2ccc([N+](=O)[O-])cc2)o1 [Compound 141, {3-Methyl-5-[5-(4-nitrophenyl)furan-2-ylmethylene]-4-oxo-2-thioxo-imidazolidin-1-yl}-acetic acid methyl ester]",> 50%,* (50 < *),
"O=C1C(=Cc2ccc(-c3ccc([N+](=O)[O-])cc3)o2)SC(=S)N1c1ccc(O)cc1 [Compound 142, 3-(4-Hydroxyphenyl)-5-[5-(4-nitrophenyl)furan-2-ylmethylene]-2-thioxo-thiazolidin-4-one]",> 50%,* (50 < *),
"O=C1C(=Cc2ccc(-c3cccc([N+](=O)[O-])c3)o2)SC(=S)N1CCS(=O)(=O)O [Compound 143, 2-{5-[5-(3-Nitrophenyl)furan-2-ylmethylene]-4-oxo-2-thioxo-thiazolidin-3-yl}-ethanesulfonic acid]",> 50%,* (50 < *),
